# T1: human CD70-Fc binding to CD27 on CD4+CD25+ Treg cells (Homo sapiens, UniProt P26842)
# T1 construct: from tissue; host or cells: splenocytes from hCD27+/+ mCD27-/- transgenic mice
# T1 sequence (P26842 20-260): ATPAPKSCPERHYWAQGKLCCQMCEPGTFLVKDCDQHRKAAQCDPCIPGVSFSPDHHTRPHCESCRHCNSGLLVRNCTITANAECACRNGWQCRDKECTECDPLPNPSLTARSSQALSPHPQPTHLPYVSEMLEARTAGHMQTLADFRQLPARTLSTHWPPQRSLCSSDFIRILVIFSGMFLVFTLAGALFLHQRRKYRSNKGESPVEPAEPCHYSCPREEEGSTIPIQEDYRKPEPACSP
# T2: w.t. CD27 extracellular domain fragment (Homo sapiens, UniProt P26842)
# T2 construct: made in house; culture supernatant used
# T2 sequence (P26842 21-130): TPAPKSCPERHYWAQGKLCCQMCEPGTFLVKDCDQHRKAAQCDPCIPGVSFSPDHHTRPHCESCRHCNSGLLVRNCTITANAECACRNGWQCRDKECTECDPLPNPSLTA
# T3: mouse CD27 on splenocytes (gated CD4+CD25+ Treg cells) of w.t. mice (mouse, UniProt P41272 24-250)
# T3 construct: whole, on cells; also called mCD27
# T3 sequence (looked up): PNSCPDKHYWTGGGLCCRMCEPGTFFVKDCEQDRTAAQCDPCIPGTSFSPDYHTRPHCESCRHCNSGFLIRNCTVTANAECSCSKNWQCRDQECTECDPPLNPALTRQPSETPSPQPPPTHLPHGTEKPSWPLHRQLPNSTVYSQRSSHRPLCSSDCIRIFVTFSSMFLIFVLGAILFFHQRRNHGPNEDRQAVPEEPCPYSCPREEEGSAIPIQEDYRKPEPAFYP
# T4: CD27 extracellular domain fragment, amino acid residues 1-110, R87A mutation sequence, fused with a human … (human, UniProt P26842 21-130)
# T4 construct: Used as culture supernatant of transient transfection; also called CD27R87A; mutant CD27 fragment; not shown: human kappa chain at the N-terminus; flag-tag at the C-terminus
# T4 chain: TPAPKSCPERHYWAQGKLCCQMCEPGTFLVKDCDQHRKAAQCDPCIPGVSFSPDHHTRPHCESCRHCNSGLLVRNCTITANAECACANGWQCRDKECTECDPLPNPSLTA
# How the values were obtained:
# E.G7 cells = assay: E.G7 tumor model with OT-I T-cell adoptive therapy; assay type: in vivo, mice
# [1] = test system: CD8, CD4 T-cells and Treg (CD4+Foxp3+); assay: T-cell depletion in spleen and pLNs of human CD27 transgenic mice (flow cytometry); assay type: in vivo
# Source text: Spleens and pLNs were collected 7 days later and processed for flow cytometry analysis.
# The same preparations of splenocytes and pLNs cells as in Example 1 were stained for CD8, CD4 and Foxp3.
# recipient CD3 T-cells = assay: Recipient T-cell depletion after CD27 Ab pretreatment (flow cytometry); assay type: in vivo, mice; conditions: for recipient CD3 T-cell counts on day 0: compared to isotype control
# Description: Spleens and pLNs were collected from one set of mice on day 0 without cell transfusion and from another set of mice 14 days post intravenous (i.v.) transfusion with 2×10^6 CFSE-labeled w.t. CD8 T-cells for the assessment of recipient cell depletion (FIG. 4A) and donor cell expansion (FIG. 4B). Percentages of recipient CD3 T-cells (CD45.1^+CD45.2^−CD3^+) and donor origin CD8 T-cells (CD45.1^−CD45.2^+CD3^+CD8^+) out of total live cells in spleens and pLNs were determined by flow cytometry and the absolute numbers of donor origin cells were calculated based on total cell counts of spleens and pLNs.
# These mice were bled and then transfused with 2×10^6 CD8 T-cells on day 0. Shown are the percentages of donor origin cells out of total live cells in the spleen and pLNs after 14 days of in vivo expansion (FIG. 10A) and the percentages of CD3 T cells in recipients' blood on day 0 before transfusion (FIG. 10B). Data are from one representative experiment of two performed, n=5 mice per group, *p<0.05, **p<0.01, ***p<0.001 indicating statistical significance compared to isotype control or between groups as specified by the horizontal line.
# (§1) CD8 T cells on day 0. Spleens and pLNs were collected on day 14 and processed for flow cytometry analysis. […] CD8, CD4 and Treg cell counts per μl blood were depicted in FIG. 11C (n=6 mice per group).
# donor origin CD8 T-cells = assay: In vivo expansion of adoptively transferred donor T-cells in pretreated recipient mice; conditions: for donor CD8 T-cell expansion: 14 days post transfusion
# [2] = molecular target: T1, human CD70-Fc binding to CD27 on CD4+CD25+ Treg cells; assay: hCD70-Fc staining on hCD27+/+mCD27-/- splenocytes preincubated with Ab (ligand blocking); conditions: 10 μg Ab 30 minutes on ice, vs hIgG1 isotype control
# Description: Splenocytes from hCD27^+/+mCD27^−/− mice were incubated with 10 μg Ab as indicated for 30 minutes on ice and then stained with a fluorescently labeled human CD70-Fc fusion protein (0.5 μg) and Abs for cell surface markers. Shown is a histogram of hCD70-Fc staining on gated CD4^+CD25^+ Treg cells.
# CD8 T cells = assay: Ki-67 proliferation of donor and recipient CD8 T cells after varlilumab; assay type: in vivo, mice; conditions: spleen, varlilumab pretreatment
# Source text: as §1
# Percentage of ki-67^+ in gated donor origin or recipient origin CD8 T cells in the spleen of the same mice as in FIGS. 11A and 11B were depicted in FIG. 12A. Percentages of Ki-67^+ cells in gated CD8 T cells in the spleen and pLNs of the same mice as in FIG. 11C were depicted in FIG. 12B.
# WBC subpopulations = assay: Total and differential WBC counts and Treg recovery after conditioning treatment; assay type: in vivo, mice
# [3] = molecular target: T2, w.t. CD27 extracellular domain fragment; assay: ELISA binding to w.t. CD27 fragment; conditions: serially diluted supernatants
# Source text: CD27 extracellular domain spanning amino acid residue 1-110 w.t. sequence and R87A mutation sequence according to Kabat numbering were cloned into an expression vector fused with a human kappa chain in the N-terminus and a flag-tag in the C-terminus. The CD27 fragments were expressed by transient transfection and quantified by an ELISA measuring concentration of human kappa chain in the culture supernatant.
# [4] = molecular target: T3, mouse CD27 on splenocytes (gated …); assay: flow cytometry, labeled mCD70-Fc (0.5 ug) on gated CD4+CD25+ Treg cells of w.t. mouse splenocytes
# Source text: FMO stands for fluorescence minus one, reflecting background fluorescence on the same gated cells.
# [5] = molecular target: T4, CD27 extracellular domain fragment, …; assay: ELISA, CD27 fragment captured by anti-flag Ab
# [6] = test system: SIINFEKL-specific IFNγ spots; assay: OVA immunisation ELISPOT (co-stimulatory/agonistic activity); assay type: in vivo; conditions: 5 mg OVA and 50 μg Ab on day 0, spleens 7 days later, hCD27+/-mCD27wt mice
# Source text: (§2) Shown are […]-specific IFNγ spots number per spleen, n=4 or 5 mice per group (FIG. 9C). Data are from one representative experiment of two performed, *p<0.05, ***p<0.001, ****p<0.0001, indicating statistical significance compared to isotype control or between groups as specified by the horizontal line.
# as §2, with “Spleens were collected 7 days later for ELISPOT analysis. Shown” for “Shown”, “n=5” for “n=4 or 5”, “10C).” for “9C).”, “**p<0.01,” for “***p<0.001, ****p<0.0001,”
molecule,measurement,setting,value
SIINFEKL (Ovalbumin peptide; listed as Gallus gallus) [reference compound],long-term survival with or without SIINFEKL peptide injection following OT-I T cell transfer,E.G7 cells; 100 μg i.p. day 8 or 20 μg day 17,no difference in long-term survival
varlilumab: fully human monoclonal IgG1 antibody binding CD27; heavy/light chains SEQ ID NO: 68 and 69,percentage and absolute numbers of Treg in peripheral lymph organs,"[1]; 0.2 mg i.p., 7 days, spleen and pLNs, vs isotype control",reduced
same,"total T-cells (CD8 and CD4), percentage out of total live cells and absolute numbers","[1]; 0.2 mg i.p., spleens and pLNs 7 days later, hCD27+/-mCD27wt mice, vs isotype control",reduced
same,pattern of T-cell deletion among T-cell subsets,[1]; Examples 1 and 2 together,"preferentially on Treg and secondarily on CD4-Th, while the least reduction is on CD8 T-cells"
same,"T cell reduction in the two strains of recipients (CD8, CD4 and Treg counts per μl blood)","recipient CD3 T-cells; 300 μg day 0, blood 14 days later, hCD27+/+mCD27-/- vs hCD27+/+mCD27wt",same extent of T cell reduction
same,recipient CD3 T-cell counts on day 0,recipient CD3 T-cells; 1 dose on day -14,reduced to the same extent
same,recipient CD3 T-cell counts on day 0,recipient CD3 T-cells; 2 doses on day -14 and -2,reduced to the same extent
same,recipient CD3 T-cell counts on day 0,recipient CD3 T-cells; Ab on day -2 only,no significant reduction
same,recipient CD3 T-cell counts by day 14 compared to day 0,recipient CD3 T-cells; Ab on day -14 only,remained the same
same,recipient CD3 T-cell counts by day 14 compared to day 0,recipient CD3 T-cells; varlilumab on day -2 only,further decreased
same,recipient CD3 T-cell counts by day 14 compared to day 0,recipient CD3 T-cells; varlilumab on day -14 and -2,further decreased
same,"percentage of donor-origin CD8 T-cells out of total live cells, time course","donor origin CD8 T-cells; 200 μg day -7 and -2, spleens and pLNs day 7, 14 and 21, vs hIgG1",long-lasting accumulation of donor-origin CD8 T-cells
same,transferred cell expansion in recipients lacking CD27 signaling,"donor origin CD8 T-cells; 200 μg days -7 and -2, hCD27+/+mCD27-/- recipients, day 14",remarkable transferred cell expansion
same,expansion of transfused CD8 T-cells compared to 2C2 or varlimut,"donor origin CD8 T-cells; 300 μg days -14 and -2, hCD27+/+mCD27-/- mice, 14 days",greater expansion of transfused CD8 T-cells
same,donor CD8 T-cell expansion,donor origin CD8 T-cells; 300 μg i.p. on day -2 only,minimal expansion
same,donor CD8 T-cell expansion,"donor origin CD8 T-cells; 300 μg i.p. on day -14 and -2, hCD27+/+mCD27-/- mice",greatest expansion
same,donor CD8 T-cell expansion,donor origin CD8 T-cells; 300 μg i.p. on day -14 only,median level of expansion
same,"donor cell expansion (donor origin CD8 T-cells in blood, spleen and pLNs)","donor origin CD8 T-cells; Example 14 regimens, day 14, Cy and Flu vs control mice, varlilumab vs Cy and Flu",further increased
same,CFSE dilution in donor-origin CD8 T-cells,"donor origin CD8 T-cells; pretreatment day -14 and -2, vs hIgG1",enhanced proliferation
same,hCD70-Fc staining on gated CD4+CD25+ Treg cells (ligand blocking),[2],no hCD70 binding detected
same,CD8 T-cell proliferation (Ki-67+) donor origin vs recipient origin cells,CD8 T cells; hCD27+/+mCD27-/- mice,significantly higher in donor origin cells
same,CD8 T-cell proliferation (Ki-67+) donor origin vs recipient origin cells,CD8 T cells; hCD27+/+mCD27wt mice,no difference
same,conditioning effect of one delayed dose alone,"E.G7 cells; 300 μg day 14 only, OT-I day 16, survival",no conditioning effect by itself
same,antitumor efficacy of varlilumab pretreatment followed by OT-I T-cell transfer,"E.G7 cells; 300 μg day -2 and 5, OT-I day 7, tumor growth and survival",stronger antitumor efficacy than varlilumab alone
same,antitumor efficacy of OT-I T-cells compared to hIgG1 isotype control,"E.G7 cells; delayed therapy: 300 μg day 6 and 14, OT-I day 16",enhances antitumor efficacy of OT-I T-cells
same,OT-I T-cells antitumor activity compared to hIgG1 control,"E.G7 cells; varlilumab 300 μg day 7 and 14, or Cy 1 mg and Flu 0.1 mg day 13 and 14, OT-I day 16",facilitates OT-I T-cells antitumor activity
same,effect of one delayed dose combined with Cy and Flu on OT-I T-cells antitumor activity,"E.G7 cells; varlilumab 300 μg day 14 plus Cy 1 mg and Flu 0.1 mg day 13 and 14, survival",synergizes
same,"percentage of Treg cells out of total live cells in blood, spleen and pLNs on day 14",WBC subpopulations; 14 days post cell transfer,remains low
same,total and differential counts of WBC per μl blood on day of adoptive transfer (day 0),"WBC subpopulations; varlilumab 300 μg day -14 and -2, Cy 1 mg and Flu 0.1 mg day -4, -3, -2, hCD27+/+mCD27-/- mice","only depletes T-cells with the most reduction in Treg population and does not attack myeloid cells, B-cells and NK cells"
same,binding to w.t. CD27 fragment (OD450),[3],recognizes w.t. CD27
"mouse CD70-Fc fusion protein (Fc fusion, UniProt O55237 45-195, looked up, Fluorescence-labeled; also called mCD70-Fc; not shown: Fc part) SKQQQRLLEHPEPHTAELQLNLTVPRKDPTLRWGAGPALGRSFTHGPELEEGHLRIHQDGLYRLHIQVTLANCSSPGSTLQHRATLAVGICSPAAHGISLLRGRFGQDCTVALQRLTYLVHGDVLCTNLTLPLLPSRNADETFFGVQWICP",binding result,[4],binds
"varlilumab (antibody, human IgG1, kappa, V domains shown, Fully human monoclonal anti-human CD27 antibody; also called 1F5; CDX-1127) VH: QVQLVESGGGVVQPGRSLRLSCAASGFTFSSYDMHWVRQAPGKGLEWVAVIWYDGSNKYYADSVKGRFTISRDNSKNTLYLQMNSLRAEDTAVYYCARGSGNWGFFDYWGQGTLVTVSS VL: DIQMTQSPSSLSASVGDRVTITCRASQGISRWLAWYQQKPEKAPKSLIYAASSLQSGVPSRFSGSGSGTDFTLTISSLQPEDFATYYCQQYNTYPRTFGQGTKVEIKR",binding result,[5],no binding
"varlimut: a FCD265A mutated mouse IgG1 isotype of varlilumab (antibody, V domains shown) VH: QVQLVESGGGVVQPGRSLRLSCAASGFTFSSYDMHWVRQAPGKGLEWVAVIWYDGSNKYYADSVKGRFTISRDNSKNTLYLQMNSLRAEDTAVYYCARGSGNWGFFDYWGQGTLVTVSS VL: DIQMTQSPSSLSASVGDRVTITCRASQGISRWLAWYQQKPEKAPKSLIYAASSLQSGVPSRFSGSGSGTDFTLTISSLQPEDFATYYCQQYNTYPRTFGQGTKVEIK",depleting activity (percentages of CD3 T cells in recipients' blood on day 0),"recipient CD3 T-cells; 300 μg days -14 and -2, hCD27+/+mCD27-/- mice",no depleting and agonistic activities
same,co-stimulatory / agonistic activity (SIINFEKL-specific IFNγ spots number per spleen),[6],no depleting and agonistic activities
same,hCD70-Fc staining on gated CD4+CD25+ Treg cells (ligand blocking),[2],blocks ligand binding

# — patent publication US20220016168A1, “METHODS OF USING CD27 ANTIBODIES AS CONDITIONING TREATMENT FOR ADOPTIVE CELL THERAPY” (Celldex Therapeutics, Inc., priority 2018, published 2022)
